# From patent US11771634B2, “Antimicrobial antifungal composition” (GODREJ INDUSTRIES LIMITED, priority 2021, dated 2023)
# Legend:
# M. furfur [1] = experiment: Anti-dandruff efficacy, zone of inhibition; format: cell-based, Malassezia furfur
# From the text: Comparison of Anti-Dandruff Efficacy Against M. furfur
# M. furfur [2] = experiment: Time kill method (ASTM E 2315-16); format: cell-based, Malassezia furfur; settings: 1% AI
# From the text: Time Kill Method (at 1% AI) Against Test Organism M. furfur.
# Candida albicans = experiment: MIC by Tube/Plate dilution method; format: cell-based
# Procedure: (§1) The minimum inhibitory concentration (MIC) of an antibacterial is the maximum dilution of the product that will still inhibit the growth of a test microorganism. In Tube/Plate dilution method, serial dilutions of the products are made in bacterial growth media, incubated, and scored for growth. It was determined by Tube/Plate method.
# Staph. aureus = experiment: MIC by Tube/Plate dilution method; format: cell-based
# Procedure: as §1
# Escherichia coli = experiment: MIC by Tube/Plate dilution method; format: cell-based
# Procedure: as §1
# Ps. aeruginosa = experiment: MIC by Tube/Plate dilution method; format: cell-based
# Procedure: as §1
# [3] = tested on: gm +ve and gm −ye micro-organism; experiment: Antibacterial efficacy by MIC, overall conclusion; format: cell-based
# Procedure: as §1
# From the text for zein (corn protein): The Zein test enables to determine the irritation potential (harshness) of a surfactant-based product (shower gel, shampoo, soap, washing-up liquid, etc.). It consists in making soluble a yellow corn protein that is similar to the keratin present in the skin and hair. The irritation potential of the product is directly proportional to the quantity of dissolved proteins. The Zein Test provides a rapid and convenient screen for irritation potential, especially for compositions that contain surface active agents.
# This method involves measuring the solubility of zein (corn protein) in cleansing base solutions as follows.
# To 40 mL of samples, 2 f 0.05 g of zein from corn was added. The solutions with zein were shaken in a shaker with water bath (60 min. at 35° C.). The solutions were filtered on Whatman No. 1 filters and then centrifuged at 5000 rpm for 10 min. The nitrogen content in the solutions was determined by Kjeldahl method. One millilitre of the filtrate was mineralized in sulfuric acid (98%) containing copper sulphate pentahydrate and potassium sulphate. After mineralization, the solution was transferred (with 50 mL of Milli-Q water) into the flask of the Wagner-Parnas apparatus. In the next step, 20 mL of sodium hydroxide (25 wt. %) was added. The released ammonia was distilled with steam. […]
# The zein number (ZN) was calculated from the equation: ZN=(10−V1)·100·0.7 [mg N/100 mL] […]
molecule,measurement,setting,value
"zinc pyrithione [ZnPTO, reference compound]",Comments (zone of inhibition),M. furfur [1]; Active Conc. 1%,Effective
same,Zone of Inhibition (ZOI),M. furfur [1]; Active Conc. 1%,34 mm
same,Comments (zone of inhibition),M. furfur [1]; Active Conc. 2%,Effective
same,Zone of Inhibition (ZOI),M. furfur [1]; Active Conc. 2%,41 mm
same,Antimicrobial Activity Log Reduction,M. furfur [2]; exposure time 1 minute,>3.95 Log
same,Antimicrobial Activity Percentage reduction,M. furfur [2]; exposure time 1 minute,>99.98%
same,Count of Test Organism After Exposure CFU/ml,M. furfur [2]; exposure time 1 minute,<10 CFU/ml
same,Count of Test Organism After Exposure Log,M. furfur [2]; exposure time 1 minute,<1 Log
same,Antimicrobial Activity Log Reduction,M. furfur [2]; exposure time 5 minutes,>3.95 Log
same,Antimicrobial Activity Percentage reduction,M. furfur [2]; exposure time 5 minutes,>99.98%
same,Count of Test Organism After Exposure CFU/ml,M. furfur [2]; exposure time 5 minutes,<10 CFU/ml
same,Count of Test Organism After Exposure Log,M. furfur [2]; exposure time 5 minutes,<1 Log
"C=CCCCCCCCCC(=O)NCCC[N+](C)(C)CC(O)COP(=O)([O-])OCC(O)C[N+](C)(C)CCCNC(=O)CCCCCCCCC=C.[Cl-] (stereo not drawn) [UDAP PB, Undecylenamidopropyl PG-Dimonium Chloride Phosphate]",MIC,Candida albicans,<200 ppm
same,MIC,Staph. aureus,<300 ppm
same,MIC,Escherichia coli,<300 ppm
same,MIC,Ps. aeruginosa,<700 ppm
same,Comments (zone of inhibition),M. furfur [1]; Active Conc. 1%,Effective
same,Zone of Inhibition (ZOI),M. furfur [1]; Active Conc. 1%,28 mm
same,Comments (zone of inhibition),M. furfur [1]; Active Conc. 2%,Effective
same,Zone of Inhibition (ZOI),M. furfur [1]; Active Conc. 2%,33 mm
same,Antimicrobial Activity Log Reduction,M. furfur [2]; exposure time 1 minute,>4.19 Log
same,Antimicrobial Activity Percentage reduction,M. furfur [2]; exposure time 1 minute,>99.99%
same,Count of Test Organism After Exposure CFU/ml,M. furfur [2]; exposure time 1 minute,<10 CFU/ml
same,Count of Test Organism After Exposure Log,M. furfur [2]; exposure time 1 minute,<1 Log
same,Antimicrobial Activity Log Reduction,M. furfur [2]; exposure time 5 minutes,>4.19 Log
same,Antimicrobial Activity Percentage reduction,M. furfur [2]; exposure time 5 minutes,>99.99%
same,Count of Test Organism After Exposure CFU/ml,M. furfur [2]; exposure time 5 minutes,<10 CFU/ml
same,Count of Test Organism After Exposure Log,M. furfur [2]; exposure time 5 minutes,<1 Log
same,Antibacterial efficacy,[3],effective antibacterial
same,Zein Number (ZN),zein (corn protein),36 mg N/100 mL
